Laboratory results reported in PMC7031696 (Cell chemical biology, 2019).
pIC50: −log10 of the molar value. Read-outs that look alike come from different tables or passages of the source.

Experiments:
[1] = tested on: Plasmodium falciparum 3D7-A10 parasites; experiment: Stage specificity assay (8-h exposure of synchronized stages, IC50^8h); assay type: cell-based; settings: for pIC50: Plasmodium falciparum
[2] = tested on: asynchronous 3D7-A10 parasite cultures; experiment: Standard 72-h exposure asexual blood stage susceptibility assay (IC50^72h); assay type: cell-based, Plasmodium falciparum; settings: Plasmodium falciparum, 3D7, 72 h, read-out: Overall (72hr assay) Mean IC50 (IC50^72h)
[3] = tested on: 3D7-MR4 trophozoite parasite-infected RBCs; experiment: Metabolomic profiling (hydrophilic metabolite changes, UHPLC-MS); assay type: cell-based, Plasmodium falciparum

COc1cncc(-c2cncc(N3CCN(c4ccncc4)CC3)n2)c1 [MMV085071]
Ratio lowest IC50 8hr/IC50 72hr ([1]; 3D7-A10): 0.6 | pIC50 ([1]; 3D7, read-out: Early rings Mean IC50 (IC50^8h), 8-h exposure 0–8 hr, 3D7-A10, survival at 60 h): 6.05 | pIC50 ([1]; 3D7, read-out: Early trophozoites Mean IC50 (IC50^8h), 8-h exposure 16–24 hr, 3D7-A10, survival at 60 h): 7.21 | pIC50 ([1]; 3D7, read-out: Late rings Mean IC50 (IC50^8h), 8-h exposure 8–16 hr, 3D7-A10, survival at 60 h): 6.31 | pIC50 ([1]; 3D7, read-out: Late trophozoites Mean IC50 (IC50^8h), 8-h exposure 24–32 hr, 3D7-A10, survival at 60 h): 7.09 | pIC50 ([1]; 3D7, read-out: Schizonts Mean IC50 (IC50^8h), 8-h exposure 32–40 hr, 3D7-A10, survival at 60 h): 6.60 | Peak Activity (Table S1) ([1]; stage(s) with the lowest IC50^8h): Trophs | pIC50 [2]: 6.98 | changes within the set of metabolites detected (low fold change group) ([3]; 10 × IC50^72h, 2.5 hr, trophozoites): did not induce major changes | Log2(fold changes) 3-phosphoglycerate ([3]; metabolite 3-phosphoglycerate, log2 fold change): -0.3571 | Log2(fold changes) 4-Pyridoxic acid ([3]; metabolite 4-Pyridoxic acid, log2 fold change): 0.1725 | Log2(fold changes) 4-aminobutyrate ([3]; metabolite 4-aminobutyrate, log2 fold change): -0.2370 | Log2(fold changes) 4-phosphopantetheine ([3]; metabolite 4-phosphopantetheine, log2 fold change): 0.0000 | Log2(fold changes) 4-phosphopantothenate ([3]; metabolite 4-phosphopantothenate, log2 fold change): -0.0279 | Log2(fold changes) 5-aminopentanoic acid ([3]; metabolite 5-aminopentanoic acid, log2 fold change): 0.0000 | Log2(fold changes) 5-methyl-THF ([3]; metabolite 5-methyl-THF, log2 fold change): 0.0000 | Log2(fold changes) 5-phosphoribosyl-1-pyrophosphate ([3]; metabolite 5-phosphoribosyl-1-pyrophosphate, log2 fold change): 0.0000 | Log2(fold changes) 6-phospho-D-gluconate ([3]; metabolite 6-phospho-D-gluconate, log2 fold change): -0.0766 | Log2(fold change) HVDD ([3]; metabolite HVDD): 1.5471 | Log2(fold change) Hydroxyisocaproic acid ([3]; metabolite Hydroxyisocaproic acid): 0.0000 | Log2(fold change) IDP ([3]; metabolite IDP): 0.0000 | Log2(fold change) IMP ([3]; metabolite IMP): -0.0355 | Log2(fold change) Inositol ([3]; metabolite Inositol): 0.0000 | Log2(fold change) Isopentyl-PP ([3]; metabolite Isopentyl-PP): 0.0000 | Log2(fold change) L-arginino-succinate ([3]; metabolite L-arginino-succinate): 0.7586 | Log2(fold change) LD ([3]; metabolite LD): 1.2308 | Log2(fold change) Myristoyl/tetradecanoyl-CoA ([3]; metabolite Myristoyl/tetradecanoyl-CoA): 0.0000 | Log2(fold change) N-Acetyl-L-alanine ([3]; metabolite N-Acetyl-L-alanine): 0.1191 | Log2(fold change) N-acetyl-L-ornithine ([3]; metabolite N-acetyl-L-ornithine): 1.0380 | Log2(fold change) N-acetyl-glucosamine-1/6-phosphate ([3]; metabolite N-acetyl-glucosamine-1/6-phosphate): 0.0154 | Log2(fold change) N-acetyl-glutamate ([3]; metabolite N-acetyl-glutamate): 0.1593 | Log2(fold change) N-acetyl-glutamine ([3]; metabolite N-acetyl-glutamine): -0.2990 | Log2(fold change) N-carbamoyl-L-aspartate ([3]; metabolite N-carbamoyl-L-aspartate): 0.1424 | Log2(fold change) NAD+ ([3]; metabolite NAD+): 0.0189 | Log2(fold change) NADH ([3]; metabolite NADH): 0.0000 | Log2(fold change) NADP+ ([3]; metabolite NADP+): 0.1777 | Log2(fold change) NADPH ([3]; metabolite NADPH): 0.0000 | Log2(fold change) O-acetyl-L-serine ([3]; metabolite O-acetyl-L-serine): 0.0000 | Log2(fold change) Octoluse 8/1P ([3]; metabolite Octoluse 8/1P): 0.0000 | Log2(fold change) Octoluse Bisphosphate ([3]; metabolite Octoluse Bisphosphate): 0.0955 | Log2(fold change) PD ([3]; metabolite PD): 0.1245 | Log2(fold change) PE ([3]; metabolite PE): 0.4481 | Log2(fold change) PEE ([3]; metabolite PEE): 1.1300 | Log2(fold change) PEEK ([3]; metabolite PEEK): 1.3266 | Log2(fold change) PVNF ([3]; metabolite PVNF): 0.3702 | Log2(fold change) Pyroglutamic acid ([3]; metabolite Pyroglutamic acid): 0.0000 | Log2(fold change) Pyrophosphate ([3]; metabolite Pyrophosphate): 0.0000 | Log2(fold change) Ribose-5-phosphate ([3]; metabolite Ribose-5-phosphate): 0.0000 | Log2(fold change) S-adenosyl-L-homocysteine ([3]; metabolite S-adenosyl-L-homocysteine): -0.0131 | Log2(fold change) S-adenosyl-L-methioninamine ([3]; metabolite S-adenosyl-L-methioninamine): 0.0000 | Log2(fold change) S-adenosyl-L-methionine ([3]; metabolite S-adenosyl-L-methionine): 0.0000 | Log2(fold change) S-methyl-5'-thioadenosine ([3]; metabolite S-methyl-5'-thioadenosine): 0.0000 | Log2(fold change) SD ([3]; metabolite SD): 0.5330 | Log2(fold change) SDL ([3]; metabolite SDL): 0.1100 | Log2(fold change) SID ([3]; metabolite SID): -0.3348 | Log2(fold change) Sedoheptulose bisphosphate ([3]; metabolite Sedoheptulose bisphosphate): 0.0203 | Log2(fold change) Thiamine pyrophosphate ([3]; metabolite Thiamine pyrophosphate): 0.0000 | Log2(fold changes) UDP-D-glucose ([3]; metabolite UDP-D-glucose, log2 fold change): 0.0450 | Log2(fold changes) UDP-D-glucuronate ([3]; metabolite UDP-D-glucuronate, log2 fold change): 0.0222 | Log2(fold changes) UDP-N-acetyl-glucosamine ([3]; metabolite UDP-N-acetyl-glucosamine, log2 fold change): -0.1104 | Log2(fold changes) UDP ([3]; metabolite UDP, log2 fold change): 0.8151 | Log2(fold changes) UMP ([3]; metabolite UMP, log2 fold change): -0.2015 | Log2(fold changes) UTP ([3]; metabolite UTP, log2 fold change): -0.1278 | Log2(fold change) hydroxyphenylpyruvate ([3]; metabolite hydroxyphenylpyruvate): 0.0000 | Log2(fold change) hydroxyproline/Aminolevulinate ([3]; metabolite hydroxyproline/Aminolevulinate): -0.0385 | Log2(fold change) hypoxanthine ([3]; metabolite hypoxanthine): 0.0000 | Log2(fold change) indole ([3]; metabolite indole): 0.0000 | Log2(fold change) inosine ([3]; metabolite inosine): -0.0754 | Log2(fold change) isoleucine ([3]; metabolite isoleucine): -0.1140 | Log2(fold change) lactate ([3]; metabolite lactate): 0.0000 | Log2(fold change) leucine ([3]; metabolite leucine): -0.0775 | Log2(fold change) lysine ([3]; metabolite lysine): 0.0000 | Log2(fold change) malate ([3]; metabolite malate): -0.0512 | Log2(fold change) maleic acid ([3]; metabolite maleic acid): -0.0636 | Log2(fold change) methionine ([3]; metabolite methionine): 0.2308 | Log2(fold change) myo-inositol ([3]; metabolite myo-inositol): 0.0000 | Log2(fold change) nicotinamide mononucleotide ([3]; metabolite nicotinamide mononucleotide): 0.0000 | Log2(fold change) nicotinate ([3]; metabolite nicotinate): 0.2062 | Log2(fold change) ornithine ([3]; metabolite ornithine): 0.0000 | Log2(fold change) orotate ([3]; metabolite orotate): 0.3476 | Log2(fold change) orotidine-5'-phosphate ([3]; metabolite orotidine-5'-phosphate): 0.4326 | Log2(fold change) oxaloacetate ([3]; metabolite oxaloacetate): 0.0000 | Log2(fold change) p-aminobenzoate ([3]; metabolite p-aminobenzoate): 0.0000 | Log2(fold change) p-hydroxybenzoate ([3]; metabolite p-hydroxybenzoate): 0.0000 | Log2(fold change) pantothenate ([3]; metabolite pantothenate): -0.2410 | Log2(fold change) phenylalanine ([3]; metabolite phenylalanine): -0.1015 | Log2(fold change) phenylpyruvate ([3]; metabolite phenylpyruvate): 0.0000 | Log2(fold change) phosphoenolpyruvate ([3]; metabolite phosphoenolpyruvate): -0.3652 | Log2(fold change) prephenate ([3]; metabolite prephenate): 0.0000 | Log2(fold change) proline ([3]; metabolite proline): 0.0444 | Log2(fold change) pyridoxine ([3]; metabolite pyridoxine): 0.0000 | Log2(fold change) pyruvate ([3]; metabolite pyruvate): -0.4378 | Log2(fold change) riboflavin ([3]; metabolite riboflavin): -0.6618 | Log2(fold change) ribose ([3]; metabolite ribose): 0.0000 | Log2(fold change) ribose-phosphate ([3]; metabolite ribose-phosphate): -0.0725 | Log2(fold change) ribulose-5-phosphate ([3]; metabolite ribulose-5-phosphate): -0.2555 | Log2(fold change) serine ([3]; metabolite serine): 0.5038 | Log2(fold change) sn-glycerol-3-phosphate ([3]; metabolite sn-glycerol-3-phosphate): -0.1967 | Log2(fold change) succinate/Methylmalonic acid ([3]; metabolite succinate/Methylmalonic acid): -0.0635 | Log2(fold change) succinyl-CoA/methylmalonyl-CoA ([3]; metabolite succinyl-CoA/methylmalonyl-CoA): 0.0000 | Log2(fold change) taurine ([3]; metabolite taurine): 0.0000 | Log2(fold change) thiamine ([3]; metabolite thiamine): 0.0498 | Log2(fold change) threonine/homoserine ([3]; metabolite threonine/homoserine): 0.1750 | Log2(fold change) thymidine ([3]; metabolite thymidine): 0.0000 | Log2(fold changes) thymine ([3]; metabolite thymine, log2 fold change): 0.0000 | Log2(fold changes) trehalose-6-Phosphate ([3]; metabolite trehalose-6-Phosphate, log2 fold change): 0.0000 | Log2(fold changes) tryptophan ([3]; metabolite tryptophan, log2 fold change): -0.0120 | Log2(fold changes) tyrosine ([3]; metabolite tyrosine, log2 fold change): 0.0532 | Log2(fold changes) uridine ([3]; metabolite uridine, log2 fold change): 0.0000
